Data from patent publication US20210393662A1, “USE OF SGLT2 INHIBITORS TO TREAT PRIMARY SCLEROSING CHOLANGITIS” (AVOLYNT, priority 2018, published 2021).
“Also recorded” adds a separate entry of the source.

Experiments:
[1] = Plasma pharmacokinetics after oral compressed IR tablet; assay type: in vivo
From the text: Oral dosage forms according to the invention are typically tablets or capsules. Tablets can be obtained by direct compression of the mixed components of a dosage form, including an effective dosage amount of remogliflozin etabonate, and selected excipients, like cellulose derivatives, metacrylates, chitosan, carboxymethylstarch, or mixtures thereof. For example, a compressed tablet according to the invention, can be prepared by granulating a SGLT2 inhibitor with microcrystalline cellulose and croscarmellose sodium with a water and povidone solution. The resulting granules are dried, milled, and then blended with mannitol, microcrystalline cellulose, and croscarmellose. The blend is lubricated with magnesium stearate and compressed. […] Indeed, Tmax for an IR remogliflozin etabonate oral dosage form according to the invention occurs at 1 hour, or less, following ingestion of the dosage form by a subject.

TIA mice = test: TIA murine model of PSC, liver histology and survival after 7 weeks on 0.03% remogliflozin etabonate diet; assay type: in vivo, mouse; conditions: for periportal and biliary inflammation / proliferation of bile ductules: 0.03% in chow from 4 weeks of age
From the text: The following Examples describe the utilization of a murine model of […] (“PSC”) to assess the effectiveness of a treatment regimen based on the oral administration of remogliflozin etabonate. The murine PSC model is based on mice that are deficient for the expression of tumor necrosis factor alpha (“TNFα”), interleukin 10 (“IL-10”), and activation-induced cytidine deaminase (“AICDA”). As the mice are deficient in TNF, IL-10, and AICDA, they are referred to, herein, as “TIA” mice.
Moreover, as AICDA is required for immunoglobulin (“Ig”) class switching, TIA mice lack IgG and IgA, a phenotype analogous to humans with hyper-IgM syndrome. Therefore, with the combination of AICDA deficiency with the risk factors associated with TNFα and IL-10 deficiencies, TIA mice also develop liver and biliary inflammation reminiscent of PSC symptoms in humans. Accordingly, the TIA model is useful for investigating mechanisms that act early in PSC pathogenesis, as well as treatments that can prevent progression to PSC.
Example 1. Orally-administered remogliflozin etabonate reduces inflammatory cell infiltration, bile ductular proliferation, and interface hepatitis in TIA mice. TIA mice were created by first breeding TNFα knock out (“KO”) C57BL/6 mice, (strain B6.129S-Tnf^tm1Gkl/J, stock #005540, Jackson Laboratories, Bar Harbor, Me.) with IL-10 KO mice (strain B10.129P2(B6)-IL10^tm1Cgn/J, Stock No. 002251, Jackson Laboratories) to produce a population of mice that were deficient in TNFα and IL-10. Because mice with a TNFα−/− and IL10−/− genotype spontaneously develop inflammatory bowel disease (“IBD”) (Hale 2012), a condition associated with poor breeding success (Nagy 2016), the mice needed for further breeding to generate an AICDA population, were generated by breeding offspring with a TNFα−/− and IL10+/− genotype with AICDA−/− mice, which were obtained from Dr. Tasuku Honjo (Muramatsu 2000)), to produce a population of TNFα−/−, IL10−/−, and AICDA+/−(“TI-hetA”) males and females. In turn, TI-hetA pairs were bred to generate populations that were 25% TIA mice, and 50% non-colitis-susceptible TI-hetA littermates that could be used as control populations. All populations were exposed to the same environment from birth. The mice were housed in polycarbonate micro-isolator cages, in individually ventilated racks, under barrier conditions that excluded all known pathogens, including Helicobacter pylori and Norovirus. Mice had ad libitum access to water, and to a standard diet (PicoLab Mouse Diet 20/5058, LabDiet, St. Louis, Mo., USA).
At four (4) weeks of age, TIA (40) and TI-hetA (22) mice were randomized into experimental groups that received either a standard diet (20 TIA and 12 het), or a standard diet formulated 0.03% remogliflozin etabonate (20 TIA and 10 het) (Avolynt Inc., USA). The mice were maintained on this diet for seven (7) weeks. Body weights were obtained three (3) times, weekly, to assess the general health of mice, and to track the development of inflammatory bowel disease (IBD). Glycosuria in the experimental groups was assessed by applying freshly voided urine directly to the glucose test patch on an Accutest® URS-10 urinary reagent test strips (Jant Pharmaceutical Corp., Encino, Calif., USA). Mice were humanely euthanized before reaching the experimental endpoint, of eleven (11) weeks of age, if they lost>15% body weight, or developed rectal prolapse.
To characterize biliary lesions in TIA mice at the end of the 7 week treatment period, liver tissue was obtained from the remogliflozin-treated, and untreated groups, for histologic examination. The excised liver tissue was fixed in Carnoy's fixative solution, and processed into paraffin blocks. The paraffin blocks were sectioned, and stained with Hematoxylin and eosin (H&E) for pathologic analysis. The H&E-stained sections were scored by an American Board of Pathology-certified pathologist. […]

[2] = TIA mice, H&E liver sections at 11 weeks, vs untreated
[3] = TIA mice, H&E liver sections at 11 weeks, vs untreated, listed as Remo

## CCOC(=O)OC[C@H]1O[C@@H](Oc2nn(C(C)C)c(C)c2Cc2ccc(OC(C)C)cc2)[C@H](O)[C@@H](O)[C@@H]1O [remogliflozin etabonate]
[1]; IR remogliflozin etabonate oral dosage form, following ingestion
  Tmax: ≤ 1 h
[1]; compressed IR tablet, 350 mg remogliflozin etabonate, oral, after 3 hrs
  remogliflozin plasma concentration (plasma clearance to): 40 ng/mL
[1]; compressed IR tablet, 350 mg remogliflozin etabonate, oral, at 1 hr post-ingestion
  maximum remogliflozin plasma concentration (Cmax): 160 ng/mL
TIA mice; Remo group versus control group
  number of TIA mice that required early euthanasia: no statistical difference
TIA mice; Remo group versus control group, not statistically significant
  early death: trend toward decreased early death
TIA mice; [2]
  periportal and biliary inflammation: less inflammation
  proliferation of bile ductules: reduces; also recorded: less proliferation
TIA mice; [3]
  periportal and biliary inflammation: decrease
  proliferation of bile ductules: decrease
TIA mice; TIA mice, 0.03% in diet for 7 weeks, H&E liver sections at 11 weeks, vs untreated
  inflammation at the interface between hepatic parenchyma and portal tracts (interface hepatitis): reduces; also recorded: less inflammation
TIA mice; TIA mice, 0.03% in diet for 7 weeks, vs standard diet
  development and progression of liver and biliary disease (PSC disease pathology): markedly less development and progression; also recorded: prevents the progression
TIA mice; TIA mice, orally administered
  inflammatory cell infiltration: reduces
